This note sets out measurements from US20220031680A1, “Donecopride As Neuroprotective Agent In the Treatment of Neurodegenerative Diseases” (priority 2018, published 2022).

Where “and” joins values, the source holds several entries; their conditions need not be identical. Identical values can stand only once.

This assay concerns α-syn. In words: α-syn aggregation in TH neurons injured with MPP+. Type of assay: cell-based, rat. The following applies: MPP+ 4 μM 48 h; 1 h pre-incubation. Here is the method:
The aim of the present study was to investigate the neuroprotective effect of MR36014 and MR33583 (at 4 concentrations) on dopaminergic TH-positive neurons injured with MPP^+. The test compounds were pre-incubated for 1 hour before MPP^+ application (4 μM for 48 h). The neuroprotective effect (survival and neurite network) of test compounds was investigated. In addition, the effect on the cytoplasmic alpha-synuclein accumulation was studied.
Rat dopaminergic neurons were cultured as described by Callizot et al. (2019) PLoS One 14:e0215277 and Visanji et al. (2008) FASEB J. 22:2488-2497. Briefly, pregnant female rat (Wistar) of 15 days of gestation were killed using a deep anesthesia with CO2 chamber and a cervical dislocation. The midbrains obtained from 15-day-old rat embryos (Janvier, France) were dissected under a microscope. […]
Midbrains were dissociated by trypsinisation for 20 min at 37° C. […] Viable cells were counted in a Neubauer cytometer using the trypan blue exclusion test. […]
Briefly, on day 6 of culture, the medium was removed, and fresh medium was added, with or without test compounds and with or without MPP^+ for 48 hours diluted in control medium. 6 wells per condition were assessed. […]
Test compounds were tested in 96-well plate (n=6 culture wells per condition). […] The following conditions were assessed: […]

With `COc1cc(N)c(F)cc1C(=O)CCC1CCN(CC2CCCC2)CC1` [MR33583], the “concentrations reducing accumulation/aggregation of α-syn” value was 50 nM and 100 nM. `COc1cc(N)c(F)cc1C(=O)CCC1CCN(CC2CCCCCC2)CC1` [MR36014]: the “concentrations reducing accumulation/aggregation of α-syn” value is listed as “all investigated doses”.
